One series has as its system MDR2−/− mice. Nature of the series: MDR2−/− mouse model of sclerosing cholangitis. The class given is in vivo. Here is the method:
Methods: 30-day-old female MDR2−/− mice (FVB background) were treated daily for 14 days by orogastric gavage with either vehicle control (Kolliphor and CMC), 100 mg/kg/day bezafibrate (pan-PPAR agonist), 100 mg/kg/day fenofibrate (PPARα agonist), 10 mg/kg seladelpar (PPARδ agonist), 0.008% SC-435 (non-absorbable IBAT inhibitor) admixed to chow, or a combination of SC-435 and PPAR agonists.

Series [1] can be described thus: Maralixibat open label study in PFIC (LUM001-501): pruritus and concomitant antipruritic medication. The class given is in vivo, human. An excerpt:
In an open label study to evaluate efficacy and long term safety of maralixibat (LUM001) in the treatment of Cholestatic Liver Disease in patients with Progressive Familial Intrahepatic Cholestasis (PFIC) (Study LUM001-501), participants were not allowed to make any changes to their antipruritic therapy during the 13-week treatment period. No new medications used to treat pruritus were to be added during the 13-week treatment period. Therefore, participants had to be on stable antipruritic medication doses (except for weight-based dose adjustments) during the 13-week treatment period. In the long-term exposure period, changes in antipruritic medications were allowed.

A further series can be described thus: physchem. The conditions noted are these: water. An excerpt:
Since pediatric patients are the target patient population for the proposed cholestatic disease, an oral solution formulation was selected due to its flexibility for dose adjustment based on patient's body weight and the preference for this type of formulation in young children.

A short description of series [2]: Maralixibat clinical studies in ALGS (LUM001-304, LUM001-303, LUM001-305): pruritus and concomitant antipruritic medication. The class given is in vivo, human. The source says: In Study LUM001-304, participants were not allowed to make any changes to their antipruritic therapy up to Week 22. In Studies LUM001-301 and LUM001-302, no changes to the antipruritic comedications were allowed throughout the period of the primary analysis up to Week 13. Therefore, across all studies, participants had to be on stable antipruritic medication doses (except for weight-based dose adjustments) throughout the randomized controlled periods. […] Participants in LUM001-302 received either 140 μg/kg/day or 280 μg/kg/day of maralixibat (as maralixibat chloride). The long-term LUM001-303 dosing was 280 μg/kg QD and 280 μg/kg BID. The long term LUM001-305 dosing was at 280 μg/kg/day. After these stable-dosing periods in the long-term extension studies, changes in antipruritic medications were allowed. Weight-based dose adjustments in antipruritic medications were anticipated over the course of a 5-year study.

Series [3] is described as follows: Solubility of MRX drug substance in water and commercially available vehicles, visual observation. The class given is physicochemical. To be noted: Water; 0.02 mg/mL. As to the method: For early pediatric clinical studies, the desired maralixibat solution concentration was in the range of 0.02 to 20 mg/mL (concentration based on maralixibat chloride). Initial formulation studies were conducted to determine the solubility and stability of MRX drug substance in three liquid oral dosing vehicles: water, Pedialyte® (an oral rehydration preparation), and Ora-Sweet® SF (a sugar-free, alcohol-free syrup vehicle for oral preparations). Using these three vehicles, samples were produced with the MRX drug substance at three different concentrations (0.02 mg/mL, 2.0 mg/mL, and 4.0 mg/mL concentrations based on maralixibat chloride). A vortex mixer was used to disperse the drug within the liquid vehicle; drug dissolution status was then visually checked and recorded as in Table 4.

Setting [4] is: female MDR2−/− mice, daily for 14 days.
The mark [5] stands for this setting: Study LUM001-303, long-term extension, of the 19 participants.
Where [6] appears, read: Study LUM001-305, long term extension, of the 34 participants.

Take `CCCCC1(CCCC)CS(=O)(=O)c2ccc(N(C)C)cc2[C@@H](c2ccc(OCc3ccc(C[N+]45CCN(CC4)CC5)cc3)cc2)[C@H]1O.[Cl-]` [SC-435]: the “serum ALP” value in the series on MDR2−/− mice (female MDR2−/− mice (FVB background), daily for 14 days) is on record as “increased”. Moreover, in the series on MDR2−/− mice (setting [4]), the “liver to body weight ratio” value is given as “attenuated”, the “retention of BA in the liver” value is given as “significantly reduced”, the “serum BA concentrations” value is “decreased” and the “serum TB concentrations” value is reported as “reduced”. In addition, the “potency in reducing serum total BA and TB levels” value with MDR2−/− mice (mouse model of SC) is “more potent than PPAR agonists”.
As a reminder, the solubility is the concentration that dissolves in the medium under given conditions. For the compound `CCCCC1(CCCC)CS(=O)(=O)c2ccc(N(C)C)cc2[C@@H](c2ccc(OCc3ccc(C[N+]45CCN(CC4)CC5)cc3)cc2)[C@H]1O` [maralixibat chloride], the “pruritus control after discontinuing one or more antipruritic medications” value in series [1] (5 exemplary PFIC patients, FIGS. 3A-3E) is recorded as “still maintain control of pruritus”. Moreover, in series [1] (Study LUM001-501, N=33), the “participants with a decrease in dose or discontinuation of antipruritic medications” value was 13 participants and the “participants with an increase in dose of antipruritic medication” value worked out at 5 participants. Besides, in series [1] (Study LUM001-501, sustained period of follow-up), the “pruritus, ItchRO(Obs) scores” value is “general improvements in pruritus”. In the series “physchem”, this compound had a solubility of over 100 mg/mL. In addition, the pruritus scores entry in series [2] (ALGS studies, long-term follow-up) is on record as “consistently improved”. Besides, in series [2] (setting [5]), the “participants who experienced a decrease in concomitant antipruritic medication” value (“participants who experienced a decrease” for short) is recorded as 2 participants, the “participants who experienced an increase in concomitant antipruritic medication” value is “Five” and the “participants with no or minimal change in concomitant antipruritic medication” value is 12 participants. Also, in series [2] (Study LUM001-304, 400 μg/kg dose, compared with supporting ALGS studies at lower doses), the “pruritus reduction and proportion of participants reducing concomitant antipruritic medication” value was “greatest pruritus reduction and the largest proportion of participants reducing concomitant antipruritic medication”. Besides, the “participants who experienced a decrease” value in series [2] (Study LUM001-304, after Week 22, long-term extension, of the 29 participants) is 10 participants. In addition, in series [2] (setting [6]), the “participants who experienced a decrease” value is listed as 10 participants, the “participants who experienced an increase in concomitant antipruritic medication” value is given as “Seven” and the “participants with no or minimal change in concomitant antipruritic medication” value is given as 17 participants. Besides, the “Solubility Observations” value in series [3] is recorded as “Dissolved Instantly”.

Source of the values: patent US20230181527A1, “APICAL SODIUM-DEPENDENT TRANSPORTER INHIBITOR COMPOSITIONS” (Mirum Pharmaceuticals, Inc., priority 2021, published 2023).
